# Test results taken from patent US12433908B2, “Use of nicotinamide riboside, nicotinic acid riboside, and nicotinamide mononucleotide, reduced nicotinyl compounds, and nicotinoyl compound derivatives in infant formula for healthy development” (ChromaDex, Inc., priority 2016, dated 2025).
# How the values were obtained:
# [1] = Fecal and activity scores of piglets given NR solution; type: in vivo, piglets (Yorkshire/Hampshire crossbred); conditions: for Activity Score: scale 4=alert, attentive to 1=very lethargic; for Fecal Score: scale 4=normal (solid) to 1=severe diarrhea (liquid)
# Description: Sixteen (n=16) Yorkshire/Hampshire crossbred piglets were obtained from the University of California, Davis Swine Teaching and Research Center and received on lactation day (“LD”) 14. Prior to arrive, the piglets were processed by the suppler between 1-3 days of age by administration of iron and an antibiotic ([…] for swine) as is common practice at the University of California, Davis Swine Facility. It is not common practice at the University of California, Davis Swine Facility to give a second dose of iron and antibiotics unless it becomes necessary. The piglets were from two litters (litters 15 and 17), weaned at 17 days of age, and randomly placed into one of two groups balanced for litter, sex, and weight. The animals were not acclimated to the facility at arrival and were subsequently acclimated to the test diet administration system. The piglets were weaned into a temperature-controlled room (approximately 27-29° C.) that contained 10 adjacent pens. The piglets were group-housed in the nursery room at the Swine Facility, which is an enclosed room with access restricted to trained personnel. The two groups were separated by one pen containing piglets of similar age. Each morning enough nicotinamide riboside (NR, I) in water solution was prepared for that day's dose administration according to the dose preparation protocol. At least 5 mL of prepared dose was reserved and immediately frozen after preparation each day for analysis of nicotinamide riboside (NR, I) for the purpose of confirming stability of the dose material. The doses were stored at refrigeration temperature while not in use. Nicotinamide riboside (NR, I) was dosed once per day in the morning and at the same time each day. Piglets in the control group received the same volume of plain water and were dosed on the same schedule. Starting on Day 1, animals in the nicotinamide riboside (NR, I) group were dosed once daily (in the morning) with 277 mg nicotinamide riboside (NR, I) per pig resuspended in water for seven days. After one week, animals were dosed once daily with 342 mg nicotinamide riboside (NR, I) per pig delivered in 2.5 mL for seven days. For Days 1 and 2, the nicotinamide riboside (NR, I) solution was prepared by resuspending 2770 mg nicotinamide riboside (NR, I) in 50 mL water, and 5 mL of this solution was delivered to each pig by squirting it into the back of the mouth using a 10 mL syringe with a piece of tubing attached to the end. To reduce the volume to more efficiently deliver the nicotinamide riboside (NR, I) solution, the 2770 mg was resuspended in 25 mL water and 2.5 mL of the solution was squirted into the back of the mouth of each pig using a 3 mL syringe for Days 3-7. For Days 8-14, 3420 mg nicotinamide riboside (NR, I) was resuspended in 25 mL water and 2.5 mL of this solution was delivered to each pig. Each day prior to dosing, 2.5 mL of the nicotinamide riboside (NR, I) (5 mL on Days 1 and 2) were placed into a separate tube and frozen. All animals were weighed at weaning (baseline) and after one and two weeks of nicotinamide riboside (NR, I) supplementation. Fecal and activity scores were recorded daily using the scales listed below. Weights and fecal scores were analyzed using a two-factor repeated measures ANOVA (mixed-model ANOVA) with p values<0.05 considered significant. The fecal consistency scale used is as follows: 4=normal (solid); 3=soft feces (semi-solid); 2=mild diarrhea (semi liquid); 1=severe diarrhea (liquid).
# [2] = Body weight of early-weaned piglets given NR solution; type: in vivo, piglets (Yorkshire/Hampshire crossbred)
# Description: Sixteen (n=16) Yorkshire/Hampshire crossbred piglets were obtained from the University of California, Davis Swine Teaching and Research Center and received on lactation day (“LD”) 14. Prior to arrive, the piglets were processed by the suppler between 1-3 days of age by administration of iron and an antibiotic (Excede for swine) as is common practice at the University of California, Davis Swine Facility. It is not common practice at the University of California, Davis Swine Facility to give a second dose of iron and antibiotics unless it becomes necessary.
# The piglets were from two litters (litters 15 and 17), weaned at 17 days of age, and randomly placed into one of two groups balanced for litter, sex, and weight. The animals were not acclimated to the facility at arrival and were subsequently acclimated to the test diet administration system. The piglets were weaned into a temperature-controlled room (approximately 27-29° C.) that contained 10 adjacent pens. The piglets were group-housed in the nursery room at the Swine Facility, which is an enclosed room with access restricted to trained personnel. The two groups were separated by one pen containing piglets of similar age.
# Each morning enough nicotinamide riboside (NR, I) in water solution was prepared for that day's dose administration according to the dose preparation protocol. At least 5 mL of prepared dose was reserved and immediately frozen after preparation each day for analysis of nicotinamide riboside (NR, I) for the purpose of confirming stability of the dose material. The doses were stored at refrigeration temperature while not in use. Nicotinamide riboside (NR, I) was dosed once per day in the morning and at the same time each day. Piglets in the control group received the same volume of plain water and were dosed on the same schedule.
# The daily amount of nicotinamide riboside (NR, I) approximated the dose (33 mg/kg) used in human investigations of efficacy in areas of mitochondrial dysfunction converted to piglet equivalent dose using the body surface area method. See A. B. Nair & S. Jacob, A simple practice guide for dose conversion between animals and human, 7 J. BASIC CLIN. PHARMA 27 (2016), incorporated by reference herein in its entirety.
# Starting on Day 1, animals in the nicotinamide riboside (NR, I) group were dosed once daily (in the morning) with 277 mg nicotinamide riboside (NR, I) per pig resuspended in water for seven days. After one week, animals were dosed once daily with 342 mg nicotinamide riboside (NR, I) per pig delivered in 2.5 mL for seven days. For Days 1 and 2, the nicotinamide riboside (NR, I) solution was prepared by resuspending 2770 mg nicotinamide riboside (NR, I) in 50 mL water, and 5 mL of this solution was delivered to each pig by squirting it into the back of the mouth using a 10 mL syringe with a piece of tubing attached to the end. To reduce the volume to more efficiently deliver the nicotinamide riboside (NR, I) solution, the 2770 mg was resuspended in 25 mL water and 2.5 mL of the solution was squirted into the back of the mouth of each pig using a 3 mL syringe for Days 3-7. […]
# All animals were weighed at weaning (baseline) and after one and two weeks of nicotinamide riboside (NR, I) supplementation. Fecal and activity scores were recorded daily using the scales listed below. Weights and fecal scores were analyzed using a two-factor repeated measures ANOVA (mixed-model ANOVA) with p values<0.05 considered significant. […]
# [3] = Wk 1, 277 mg/pig once daily oral
# [4] = Wk 2, 342 mg/pig once daily oral Days 8-14
smiles,measurement,setting,value
"NC(=O)c1ccc[n+]([C@@H]2O[C@H](CO)[C@@H](O)[C@H]2O)c1 [NR, Nicotinamide riboside]","fecal scores, NR vs. control",[1]; 2-week intervention,not statistically different
same,Activity Score,"[1]; Baseline, before dosing",4.0
same,Fecal Score,"[1]; Baseline, before dosing",3.78 ± 0.39
same,Activity Score,[1]; [3],4.0
same,Fecal Score,[1]; [3],2.93 ± 0.67
same,Activity Score,[1]; [4],4.0
same,Fecal Score,[1]; [4],2.90 ± 0.60
same,"health, nutritional quality, normal growth of piglets weaned 7 days early",[2]; 2-week feeding of NR,"did not negatively impact the health, nutritional quality, or normal growth"
same,Weight,"[2]; Baseline, before dosing",7.77 ± 1.33 kg
same,"body weight, NR vs. control",[2]; Week 1 or Week 2 of treatment,no differences in body weight
same,Weight,[2]; [3],8.33 ± 1.56 kg
same,Weight,[2]; [4],9.39 ± 1.61 kg
